Measured values published in patent US20020065219A1, “Water soluble thiazolyl peptide derivatives” (priority 2000, published 2002).
In brackets after ≈: the same amount, converted by molar mass. Where two headings read alike, the source gives them in different places.

Key:
Assay in all cases: MIC, broth micro dilution assay (NCCLS)
Type in all cases: cell-based
[1] = tested on: Staphylococcus aureus A15090; settings: for MIC: Staphylococcus aureus, read-out: MIC (μg/mL) against Staphylococcus aureus A15090
[2] = tested on: Enterococcus faecalis A20688; settings: for MIC: Enterococcus faecalis, read-out: MIC (μg/mL) against Enterococcus faecalis A20688
[3] = tested on: Streptococcus pneumoniae A28272; settings: for MIC: Streptococcus pneumoniae, read-out: MIC (μg/mL) against Streptococcus pneumoniae A28272
[4] = Mueller-Hinton medium, 35° C., 18 hours
[5] = 50% Mueller-Hinton medium and 50% Todd Hewitt medium, 35° C., 18 hours

Structure (SMILES)	MIC (μg/mL) against Staphylococcus aureus A15090 [1, 4] [µg/mL]	MIC (μg/mL) against Enterococcus faecalis A20688 [2, 4]	MIC (μg/mL) against Streptococcus pneumoniae A28272 [3, 5] [µg/mL]	other results
CO/C(C)=C1/NC(=O)C(C(C)O)NC(=O)c2csc(n2)-c2cc(O)c(-c3nc(C(=O)NC(CN4CCN(CCOCCO)CC4)C(N)=O)cs3)nc2-c2csc(n2)C2COC(=O)c3c4c5c(cccc5n3O)COC(=O)C(O[C@H]3C[C@](C)(O)[C@H](N(C)C)[C@H](C)O3)C(OC4)C(NC(=O)c3csc1n3)c1nc(cs1)C(=O)N2 (stereo partly drawn) [Example 49]	0.5 (≈ 0.31 µM)	2.0 µg/mL (≈ 1.24 µM)	0.5 (≈ 0.31 µM)	
CO/C(C)=C1/NC(=O)C(C(C)O)NC(=O)c2csc(n2)-c2cc(O)c(-c3nc(C(=O)NC(CN4CCN(C(C)=O)CC4)C(N)=O)cs3)nc2-c2csc(n2)C2COC(=O)c3c4c5c(cccc5n3O)COC(=O)C(O[C@H]3C[C@](C)(O)[C@H](N(C)C)[C@H](C)O3)C(OC4)C(NC(=O)c3csc1n3)c1nc(cs1)C(=O)N2 (stereo partly drawn) [Example 21]	0.5 (≈ 0.319 µM)	2.0 µg/mL (≈ 1.28 µM)	0.03 (≈ 0.0192 µM)	
CO/C(C)=C1/NC(=O)C(C(C)O)NC(=O)c2csc(n2)-c2cc(O)c(-c3nc(C(=O)NC(CN4CCC[C@H]4CN4CCCC4)C(N)=O)cs3)nc2-c2csc(n2)C2COC(=O)c3c4c5c(cccc5n3O)COC(=O)C(O[C@H]3C[C@](C)(O)[C@H](N(C)C)[C@H](C)O3)C(OC4)C(NC(=O)c3csc1n3)c1nc(cs1)C(=O)N2 (stereo partly drawn) [Example 65]				MIC (μg/mL) against Staphylococcus aureus A15090 [1]: 0.03 µg/mL (≈ 0.0188 µM); MIC (μg/mL) against Enterococcus faecalis A20688 [2]: 1.0 µg/mL (≈ 0.628 µM); MIC (μg/mL) against Streptococcus pneumoniae A28272 [3]: 2.0 µg/mL (≈ 1.26 µM)
COCC1CCCN1CC(NC(=O)c1csc(-c2nc3c(cc2O)-c2nc(cs2)C(=O)NC(C(C)O)C(=O)NC(=C(C)OC)c2nc(cs2)C(=O)NC2c4nc(cs4)C(=O)NC(COC(=O)c4c5c6c(cccc6n4O)COC(=O)C(O)C2OC5)c2nc-3cs2)n1)C(N)=O (stereo not drawn) [Example 98]	0.03 (≈ 0.0217 µM)	0.5 µg/mL (≈ 0.362 µM)	0.003 (≈ 0.00217 µM)	
CO/C(C)=C1/NC(=O)C(C(C)O)NC(=O)c2csc(n2)-c2cc(O)c(-c3nc(C(=O)NC(CSCCN(C)C)C(N)=O)cs3)nc2-c2csc(n2)C2COC(=O)c3c4c5c(cccc5n3O)COC(=O)C(O[C@H]3C[C@](C)(O)[C@H](N(C)C)[C@H](C)O3)C(OC4)C(NC(=O)c3csc1n3)c1nc(cs1)C(=O)N2 (stereo partly drawn) [Example 10]				MIC ([1]; A15090, 18 h): 0.125 µg/mL (≈ 0.081 µM); MIC ([2]; A20688, 18 h): 0.25 µg/mL (≈ 0.162 µM); MIC ([3]; A28272, 18 h): 0.015 µg/mL (≈ 0.00972 µM)
CO/C(C)=C1/NC(=O)C(C(C)O)NC(=O)c2csc(n2)-c2cc(O)c(-c3nc(C(=O)NC(CSCCC(=O)O)C(N)=O)cs3)nc2-c2csc(n2)C2COC(=O)c3c4c5c(cccc5n3O)COC(=O)C(O[C@H]3C[C@](C)(O)[C@H](N(C)C)[C@H](C)O3)C(OC4)C(NC(=O)c3csc1n3)c1nc(cs1)C(=O)N2 (stereo partly drawn) [Example 40]	1.0 (≈ 0.648 µM)	(4.0) μg/mL	0.03 (≈ 0.0194 µM)	
CO/C(C)=C1/NC(=O)C(C(C)O)NC(=O)c2csc(n2)-c2cc(O)c(-c3nc(C(=O)NC(CNCCOCCOCCO)C(N)=O)cs3)nc2-c2csc(n2)C2COC(=O)c3c4c5c(cccc5n3O)COC(=O)C(O[C@H]3C[C@](C)(O)[C@H](N(C)C)[C@H](C)O3)C(OC4)C(NC(=O)c3csc1n3)c1nc(cs1)C(=O)N2 (stereo partly drawn) [Example 55]				MIC (μg/mL) against Staphylococcus aureus A15090 [1]: 0.25 µg/mL (≈ 0.158 µM); MIC (μg/mL) against Enterococcus faecalis A20688 [2]: 0.5 µg/mL (≈ 0.315 µM); MIC (μg/mL) against Streptococcus pneumoniae A28272 [3]: 0.06 µg/mL (≈ 0.0378 µM)
COC(C)=C1NC(=O)C(C(C)O)NC(=O)c2csc(n2)-c2cc(O)c(-c3nc(C(=O)NC(CN(C)CCCn4ccnc4)C(N)=O)cs3)nc2-c2csc(n2)C2COC(=O)c3c4c5c(cccc5n3O)COC(=O)C(O)C(OC4)C(NC(=O)c3csc1n3)c1nc(cs1)C(=O)N2 (stereo not drawn) [Example 97]	0.125 (≈ 0.0889 µM)	0.25 µg/mL (≈ 0.178 µM)	0.125 (≈ 0.0889 µM)	
CNC(=O)N(C)CC(NC(=O)c1csc(-c2nc3c(cc2O)-c2nc(cs2)C(=O)NC(C(C)O)C(=O)N/C(=C(\C)OC)c2nc(cs2)C(=O)NC2c4nc(cs4)C(=O)NC(COC(=O)c4c5c6c(cccc6n4O)COC(=O)C(OC4CC(C)(O)C(N(C)C)C(C)O4)C2OC5)c2nc-3cs2)n1)C(N)=O (stereo not drawn) [Example 109]	0.06 (≈ 0.0393 µM)	0.5 µg/mL (≈ 0.328 µM)	0.06 (≈ 0.0393 µM)	
CNC(=O)On1c2c3c4c(cccc41)COC(=O)C(OC1CC(C)(O)C(N(C)C)C(C)O1)C(OC3)C1NC(=O)c3csc(n3)C(=C(C)OC)NC(=O)C(C(C)O)NC(=O)c3csc(n3)-c3cc(O)c(-c4nc(C(=O)NC(CN(C)C(=O)NC)C(N)=O)cs4)nc3-c3csc(n3)C(COC2=O)NC(=O)c2csc1n2 (stereo not drawn) [Example 108]	0.125 (≈ 0.079 µM)	0.5 µg/mL (≈ 0.316 µM)	0.03 (≈ 0.019 µM)	
CO/C(C)=C1/NC(=O)C(C(C)O)NC(=O)c2csc(n2)-c2cc(O)c(-c3nc(C(=O)NC(CSCCc4cnccn4)C(N)=O)cs3)nc2-c2csc(n2)C2COC(=O)c3c4c5c(cccc5n3O)COC(=O)C(O[C@H]3C[C@](C)(O)[C@H](N(C)C)[C@H](C)O3)C(OC4)C(NC(=O)c3csc1n3)c1nc(cs1)C(=O)N2 (stereo partly drawn) [Example 62]	0.125 (≈ 0.0792 µM)	0.25 µg/mL (≈ 0.158 µM)	0.015 (≈ 0.00951 µM)	
COC(C)=C1NC(=O)C(C(C)O)NC(=O)c2csc(n2)-c2cc(O)c(-c3nc(C(=O)NC(CSCC(NC(C)=O)C(=O)O)C(N)=O)cs3)nc2-c2csc(n2)C2COC(=O)c3c4c5c(cccc5n3O)COC(=O)C(OC3CC(C)(O)C(N(C)C)C(C)O3)C(OC4)C(NC(=O)c3csc1n3)c1nc(cs1)C(=O)N2 (stereo not drawn) [Example 43]	2.0 (≈ 1.25 µM)	8.0 µg/mL (≈ 5 µM)	0.125 (≈ 0.0781 µM)	
COC(C)=C1NC(=O)C(C(C)O)NC(=O)c2csc(n2)-c2cc(O)c(-c3nc(C(=O)NC(CN4CCCC4C(C)(C)O)C(N)=O)cs3)nc2-c2csc(n2)C2COC(=O)c3c4c5c(cccc5n3O)COC(=O)C(OC3CC(C)(O)C(N(C)C)C(C)O3)C(OC4)C(NC(=O)c3csc1n3)c1nc(cs1)C(=O)N2 (stereo not drawn) [Example 89]	0.003 (≈ 0.00191 µM)	0.03 µg/mL (≈ 0.0191 µM)	0.007 (≈ 0.00447 µM)	
COC(C)=C1NC(=O)C(C(C)O)NC(=O)c2csc(n2)-c2cc(O)c(-c3nc(C(=O)NC(CN(C)CCc4ccccn4)C(N)=O)cs3)nc2-c2csc(n2)C2COC(=O)c3c4c5c(cccc5n3O)COC(=O)C(O)C(OC4)C(NC(=O)c3csc1n3)c1nc(cs1)C(=O)N2 (stereo not drawn) [Example 93]	0.06 (≈ 0.0428 µM)	0.06 µg/mL (≈ 0.0428 µM)	0.001 (≈ 0.000713 µM)	
CO/C(C)=C1/NC(=O)C(C(C)O)NC(=O)c2csc(n2)-c2cc(O)c(-c3nc(C(=O)NC(CS(=O)(=O)C4CN5CCC4CC5)C(N)=O)cs3)nc2-c2csc(n2)C2COC(=O)c3c4c5c(cccc5n3O)COC(=O)C(O[C@H]3C[C@](C)(O)C(N(C)C)[C@H](C)O3)C(OC4)C(NC(=O)c3csc1n3)c1nc(cs1)C(=O)N2 (stereo partly drawn) [Example 104]				MIC ([1]; A15090, 18 h): 0.5 µg/mL (≈ 0.31 µM); MIC ([2]; A20688, 18 h): 1 µg/mL (≈ 0.62 µM); MIC ([3]; A28272, 18 h): 0.06 µg/mL (≈ 0.0372 µM)
C/C=C1\NC(=O)C(C(C)O)NC(=O)c2csc(n2)-c2cc(O)c(-c3nc(C(=O)NC(CSCCN(CC)CC)C(N)=O)cs3)nc2-c2csc(n2)C2CSC(=O)c3[nH]c4cccc(c4c3C)COC(=O)C(O)CC(NC(=O)c3csc1n3)c1nc(cs1)C(=O)N2 (stereo not drawn) [Example 102]				MIC ([1]; A15090, 18 h): 0.125 µg/mL (≈ 0.0922 µM); MIC ([2]; A20688, 18 h): 0.25 µg/mL (≈ 0.184 µM); MIC ([3]; A28272, 18 h): 0.03 µg/mL (≈ 0.0221 µM)
CO/C(C)=C1/NC(=O)C(C(C)O)NC(=O)c2csc(n2)-c2cc(O)c(-c3nc(C(=O)NC(CNCCN(C)C)C(N)=O)cs3)nc2-c2csc(n2)C2COC(=O)c3c4c5c(cccc5n3O)COC(=O)C(O[C@H]3C[C@](C)(O)[C@H](N(C)C)[C@H](C)O3)C(OC4)C(NC(=O)c3csc1n3)c1nc(cs1)C(=O)N2 (stereo partly drawn) [Example 17]	2.0 (≈ 1.31 µM)	4.0 µg/mL (≈ 2.62 µM)	0.03 (≈ 0.0197 µM)	
CCN(CC)CCS(=O)(=O)CC(NC(=O)c1csc(-c2nc3c(cc2O)-c2nc(cs2)C(=O)NC(C(C)O)C(=O)N/C(=C(\C)OC)c2nc(cs2)C(=O)NC2c4nc(cs4)C(=O)NC(COC(=O)c4c5c6c(cccc6n4O)COC(=O)C(O[C@H]4C[C@](C)(O)C(N(C)C)[C@H](C)O4)C2OC5)c2nc-3cs2)n1)C(N)=O (stereo partly drawn) [Example 103]				MIC ([1]; A15090, 18 h): 0.06 µg/mL (≈ 0.0374 µM); MIC ([2]; A20688, 18 h): 0.03 µg/mL (≈ 0.0187 µM); MIC ([3]; A28272, 18 h): 0.007 µg/mL (≈ 0.00437 µM)
C/C=C1\NC(=O)C(C(C)O)NC(=O)c2csc(n2)-c2cc(O)c(-c3nc(C(=O)NC(CN(C)CCCn4ccnc4)C(N)=O)cs3)nc2-c2csc(n2)C2CSC(=O)c3[nH]c4cccc(c4c3C)COC(=O)C(O)CC(NC(=O)c3csc1n3)c1nc(cs1)C(=O)N2 (stereo not drawn) [Example 101]				MIC ([1]; A15090, Mueller-Hinton medium, 35° C., 18 hours): 0.125 µg/mL (≈ 0.0918 µM); MIC ([2]; A20688, Mueller-Hinton medium, 35° C., 18 hours): 0.125 µg/mL (≈ 0.0918 µM); MIC ([3]; A28272, 50% Mueller-Hinton medium and 50% Todd Hewitt medium, 35° C., 18 hours): 0.003 µg/mL (≈ 0.0022 µM)
